Literature values, collected in patent US8791152B2, “Stable pharmaceutical composition containing docetaxel and a method of manufacturing the same” (SK Chemicals Co., Ltd., priority 2006, dated 2014).

**Q.** For `CC(=O)O[C@@]12CO[C@@H]1C[C@H](O)[C@@]1(C)C(=O)[C@H](O)C3=C(C)[C@@H](OC(=O)[C@H](O)[C@@H](NC(=O)OC(C)(C)C)c4ccccc4)C[C@@](O)([C@@H](OC(=O)c4ccccc4)[C@H]21)C3(C)C` [Docetaxel, docetaxel], which Solubility in water is on record?
**A.** Its Solubility in water is “almost insoluble in water”.
